In publication PMC5065625, “Structure-mechanism-based engineering of chemical regulators targeting distinct pathological factors in Alzheimer's disease” (Nature Communications, 2016):

How the values were obtained:
[1] = tested on: 5 × FAD AD mouse model; assay: Cerebral amyloid pathology (ELISA, 4G8 immunohistochemistry, Congo red); type: in vivo; conditions: 1 mg kg^−1 daily i.p., 30 days
Excerpt: The amyloidogenic characteristics of 5 × FAD mice have been described previously. In brief, 5 × FAD mice express the Swedish/London/Florida mutations of the human amyloid precursor protein (hAPP) and the M146L/L286V mutations of the human presenilin-1 (PSEN1). They develop the early and robust pathology of AD with the cognitive and behavioural impairments. The 5 × FAD mice have been widely used to test the possible efficacy of a compound targeted for AD[25][29]. We maintained the mice on a C57BL/6 × SJL hybrid background. All animal experiments were performed in accordance with the guidelines of the Asan Institute for Life Science for Laboratory Animal Care and Use (Seoul, Korea), where the animals had free access to water and food, and were housed on 12 h light/12 h dark cycle.
Chemicals used were freshly prepared shortly before administration to the animals. […]
We measured the levels of various types of Aβ in the brain as described previously. The protein fractions were serially prepared from the left hemispheres in PBS (pH 7.4), in 2% SDS and in 70% FA, and then subjected to the human Aβ40 and Aβ42 ELISA quantification according to the manufacturer's methods (Invitrogen, Carlsbad, CA, USA). The aggregated (Invitorgen) and oligomeric Aβ (82E1-specific; IBL International, Hamburg, Germany) ELISA quantifications were also performed using PBS fractions. The cerebral levels of Aβ40 and Aβ42 were represented as moles per gram of wet brain tissue, whereas the aggregated or oligomeric Aβ amounts were expressed as grams per gram of wet brain tissue.
12-μm sagittal sections of the brain were prepared from the right hemispheres on a cryostat (HM550; Microm, Walldorf, Germany), and mounted onto 1% poly-L-lysine-coated glass slides. […] The loads of amyloid deposits in the brain were expressed as the per cent area of 4G8-immunoreactive deposits or the number of congophilic plaques per mm^2 of a cortical region of interest.

[2] = biological target: metal-free Aβ40/Aβ42 (Homo sapiens, UniProt P05067); assay: Aβ aggregation inhibition/disaggregation experiments (gel/western blot, TEM), metal-free; type: biochemical; conditions: Aβ 25 μM, compound 50 μM, 37 °C, 24 h; gel/western blot and TEM
Procedure: The ability of 1–4 to control the aggregation of both metal-free Aβ and metal-Aβ in inhibition (Fig. 2) and disaggregation experiments (Supplementary Fig. 1) was evaluated using the two major Aβ isoforms (Aβ40/Aβ42)[1][2][3][6][16] found in the AD-affected brain. Molecular weight (MW) distributions and morphologies of the resulting Aβ species were determined by gel electrophoresis followed by western blotting (gel/western blot) and transmission electron microscopy (TEM). Generally, under the experimental conditions employed herein, compound-free Aβ samples with and without metal ions assemble into a distribution of large aggregates that are too big to penetrate into the gel matrix, which yields very little smearing in the gel/western blots, but they can be visualized by TEM. […]
Before experiments, Aβ40 or Aβ42 was dissolved in ammonium hydroxide (NH4OH; 1% v/v, aq). […] The concentration of the solution was determined by measuring the absorbance of the solution at 280 nm (ɛ=1,450 M^–1 cm^–1 for Aβ40; ɛ=1,490 M^–1 cm^–1 for Aβ42). […]
The Aβ samples from in vivo or in vitro experiments were analysed by gel electrophoresis followed by western blotting using an anti-Aβ antibody (6E10)[24][25][27][28][29]. […]

Sequence of metal-free Aβ40/Aβ42 (P05067 672-711 limits assumed): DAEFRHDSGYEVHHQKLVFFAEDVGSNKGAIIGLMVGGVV

| Structure (SMILES) | Loads of Aβ deposits in the brain ([1]; 4G8-immunoreactive or congophilic plaques) | Amounts of Aβ oligomers and aggregates ([1]; ELISA, PBS fractions) | Total Aβ level in the brain versus vehicle ([1]; PBS-, SDS- and FA-soluble Aβ40/Aβ42, ELISA) | Modulation of metal-free Aβ aggregation [2] |
| --- | --- | --- | --- | --- |
| Nc1ccc(NCc2ccccn2)cc1 [compound 1, N^1-(pyridin-2-ylmethyl)benzene-1,4-diamine] | reduced the loads of Aβ deposits | decreased | significantly lower |  |
| CN(C)c1ccc(NCc2ccc[nH]2)cc1 [compound 4, N^1-((1H-pyrrol-2-yl)methyl)-N^4,N^4-dimethylbenzene-1,4-diamine] |  |  |  | pronounced influence on metal-free Aβ aggregation |
